In PubChem BioAssay (NCI):
Values joined by “and” are separate entries in the source; they are usually repeats but may differ in a detail not shown here. Equal values may be shown once.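 Cultured in 96-well plates, cells were exposed to test compound for 48 hours across five concentrations. The concentration for 50% growth inhibition is given as GI50. At the TGI there is no net growth.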

Legend:
Assay in all cases: inhibition of tumour cell growth, NCI panel, 48 h
HOP-92 NSCLC = test system: HOP-92 NSCLC
BT-549 breast = test system: BT-549 breast
NCI-H460 lung = test system: NCI-H460 lung
HT29 colon = test system: HT29 colon
COLO 205 colon = test system: COLO 205 colon
MOLT-4 leukemia = test system: MOLT-4 leukemia
OVCAR-8 ovarian = test system: OVCAR-8 ovarian
SK-MEL-2 melanoma = test system: SK-MEL-2 melanoma
NCI-H522 lung = test system: NCI-H522 lung
SW-620 colon = test system: SW-620 colon
MALME-3M melanoma = test system: MALME-3M melanoma
RPMI-8226 leukemia = test system: RPMI-8226 leukemia
LOX IMVI melanoma = test system: LOX IMVI melanoma
HCT-116 colon = test system: HCT-116 colon
MDA-MB-231 breast = test system: MDA-MB-231 breast
SF-295 CNS = test system: SF-295 CNS
HOP-62 NSCLC = test system: HOP-62 NSCLC
UACC-62 melanoma = test system: UACC-62 melanoma
HCT-15 colon = test system: HCT-15 colon
CAKI-1 renal = test system: CAKI-1 renal
NCI-H23 lung = test system: NCI-H23 lung
SR leukemia = test system: SR leukemia
OVCAR-3 ovarian = test system: OVCAR-3 ovarian
MCF7 breast = test system: MCF7 breast
HS 578T breast = test system: HS 578T breast
SNB-75 CNS = test system: SNB-75 CNS
NCI-H226 lung = test system: NCI-H226 lung
HL-60(TB) leukemia = test system: HL-60(TB) leukemia
NCI/ADR-RES ovarian = test system: NCI/ADR-RES ovarian
CCRF-CEM leukemia = test system: CCRF-CEM leukemia
OVCAR-4 ovarian = test system: OVCAR-4 ovarian
U251 CNS = test system: U251 CNS
T-47D breast = test system: T-47D breast
K-562 leukemia = test system: K-562 leukemia
OVCAR-5 ovarian = test system: OVCAR-5 ovarian
M14 melanoma = test system: M14 melanoma
IGROV1 ovarian = test system: IGROV1 ovarian
UO-31 renal = test system: UO-31 renal
SN12C renal = test system: SN12C renal
A498 renal = test system: A498 renal
UACC-257 melanoma = test system: UACC-257 melanoma
SK-OV-3 ovarian = test system: SK-OV-3 ovarian
KM12 colon = test system: KM12 colon
ACHN renal = test system: ACHN renal
SF-539 CNS = test system: SF-539 CNS
SNB-19 CNS = test system: SNB-19 CNS
RXF 393 renal = test system: RXF 393 renal
786-0 renal = test system: 786-0 renal
MDA-MB-435 = test system: MDA-MB-435
EKVX NSCLC = test system: EKVX NSCLC
DU-145 prostate = test system: DU-145 prostate
SK-MEL-28 melanoma = test system: SK-MEL-28 melanoma
A549 NSCLC = test system: A549 NSCLC
SF-268 CNS = test system: SF-268 CNS

For `Nc1ccn([C@@H]2O[C@H](COP(=O)(O)O[C@@H]3C[C@H](n4cc(F)c(=O)[nH]c4=O)O[C@@H]3COP(=O)(O)O[C@@H]3C[C@H](n4cc(F)c(=O)[nH]c4=O)O[C@@H]3COP(=O)(O)O[C@@H]3C[C@H](n4cc(F)c(=O)[nH]c4=O)O[C@@H]3COP(=O)(O)O[C@@H]3C[C@H](n4cc(F)c(=O)[nH]c4=O)O[C@@H]3COP(=O)(O)O[C@@H]3C[C@H](n4cc(F)c(=O)[nH]c4=O)O[C@@H]3COP(=O)(O)O[C@@H]3C[C@H](n4cc(F)c(=O)[nH]c4=O)O[C@@H]3COP(=O)(O)O[C@@H]3C[C@H](n4cc(F)c(=O)[nH]c4=O)O[C@@H]3COP(=O)(O)O[C@@H]3C[C@H](n4cc(F)c(=O)[nH]c4=O)O[C@@H]3COP(=O)(O)O[C@@H]3C[C@H](n4cc(F)c(=O)[nH]c4=O)O[C@@H]3COP(=O)(O)O[C@@H]3C[C@H](n4cc(F)c(=O)[nH]c4=O)O[C@@H]3COP(=O)(O)OCCOCCOCCOCCOCCOCCO)[C@H](O)C2O)c(=O)n1` (stereo not given in full), the GI50 (HOP-92 NSCLC) was 3.86 µM and 14.1 µM, the TGI (HOP-92 NSCLC) was 21.1 µM and > 100 µM and the GI50 (BT-549 breast) was 0.674 µM and 0.568 µM. For the same compound, the TGI (BT-549 breast) was 21.1 µM and > 100 µM, the GI50 (NCI-H460 lung) was 0.00211 µM and the TGI (NCI-H460 lung) was 21.1 µM and > 100 µM. For the same compound, the GI50 (HT29 colon) was 0.0171 µM, the TGI (HT29 colon) was 21.1 µM and > 100 µM and the GI50 (COLO 205 colon) was 0.00973 µM. For the same compound, the TGI (COLO 205 colon) was 21.1 µM and > 100 µM, the GI50 (MOLT-4 leukemia) was 0.0246 µM and 0.0443 µM and the TGI (MOLT-4 leukemia) was 21.1 µM and > 100 µM. For the same compound, the GI50 (OVCAR-8 ovarian) was 0.0132 µM, the TGI (OVCAR-8 ovarian) was 21.1 µM and > 100 µM and the TGI (SK-MEL-2 melanoma) was > 100 µM. For the same compound, the TGI (NCI-H522 lung) was 21.1 µM and > 100 µM, the GI50 (SW-620 colon) was 4.23 µM and 2.6 µM and the TGI (SW-620 colon) was 21.1 µM and > 100 µM. For the same compound, the GI50 (MALME-3M melanoma) was 2.37 µM and 11.8 µM, the TGI (MALME-3M melanoma) was 21.1 µM and > 100 µM and the GI50 (RPMI-8226 leukemia) was 0.332 µM and 1.71 µM. The TGI (RPMI-8226 leukemia) was 21.1 µM and > 100 µM, the GI50 (LOX IMVI melanoma) was 0.0054 µM and the TGI (LOX IMVI melanoma) was 21.1 µM and > 100 µM. The GI50 (HCT-116 colon) was 0.013 µM, the TGI (HCT-116 colon) was 21.1 µM and > 100 µM and the TGI (MDA-MB-231 breast) was 21.1 µM and > 100 µM. For the same compound, the GI50 (SF-295 CNS) was 0.00328 µM, the TGI (SF-295 CNS) was 21.1 µM and > 100 µM and the GI50 (HOP-62 NSCLC) was 0.00841 µM. The TGI (HOP-62 NSCLC) was 21.1 µM and > 100 µM, the GI50 (UACC-62 melanoma) was 0.00557 µM and 0.0279 µM and the GI50 (HCT-15 colon) was 0.697 µM and 0.179 µM. For the same compound, the TGI (HCT-15 colon) was 21.1 µM and > 100 µM, the GI50 (CAKI-1 renal) was 0.00832 µM and the TGI (CAKI-1 renal) was 21.1 µM and > 100 µM. For the same compound, the GI50 (NCI-H23 lung) was 0.0255 µM and 0.0445 µM, the TGI (NCI-H23 lung) was 21.1 µM and > 100 µM and the GI50 (SR leukemia) was 0.621 µM. The TGI (SR leukemia) was 21.1 µM and > 100 µM, the GI50 (OVCAR-3 ovarian) was > 100 µM and the TGI (OVCAR-3 ovarian) was > 100 µM. For the same compound, the GI50 (MCF7 breast) was 0.00211 µM, the TGI (MCF7 breast) was 21.1 µM and > 100 µM and the GI50 (HS 578T breast) was > 100 µM. The TGI (HS 578T breast) was > 100 µM, the GI50 (SNB-75 CNS) was 4.33 µM and 10.3 µM and the TGI (SNB-75 CNS) was 21.1 µM and > 100 µM. For the same compound, the GI50 (NCI-H226 lung) was 9.21 µM and 24.6 µM, the TGI (NCI-H226 lung) was 21.1 µM and > 100 µM and the TGI (HL-60(TB) leukemia) was 21.1 µM and > 100 µM. The GI50 (NCI/ADR-RES ovarian) was 0.0146 µM and 0.0121 µM, the TGI (NCI/ADR-RES ovarian) was 21.1 µM and > 100 µM and the GI50 (CCRF-CEM leukemia) was 0.0101 µM and 0.0175 µM. For the same compound, the TGI (CCRF-CEM leukemia) was 21.1 µM and > 100 µM, the GI50 (OVCAR-4 ovarian) was > 21.1 µM and 89.5 µM and the TGI (OVCAR-4 ovarian) was > 100 µM. For the same compound, the GI50 (U251 CNS) was 0.0101 µM, the TGI (U251 CNS) was 21.1 µM and > 100 µM and the TGI (T-47D breast) was 21.1 µM and > 100 µM. The GI50 (K-562 leukemia) was 0.489 µM and 0.0858 µM, the TGI (K-562 leukemia) was 21.1 µM and > 100 µM and the GI50 (OVCAR-5 ovarian) was > 100 µM. For the same compound, the TGI (OVCAR-5 ovarian) was > 100 µM, the GI50 (M14 melanoma) was 0.00911 µM and 0.0126 µM and the TGI (M14 melanoma) was 2.56 µM and 4.9 µM. The GI50 (IGROV1 ovarian) was 1.63 µM and 1.45 µM, the TGI (IGROV1 ovarian) was 21.1 µM and > 100 µM and the GI50 (UO-31 renal) was 0.00659 µM. For the same compound, the TGI (UO-31 renal) was 6.57 µM and 7.3 µM, the GI50 (SN12C renal) was 0.0124 µM and the TGI (SN12C renal) was 21.1 µM. The GI50 (A498 renal) was 0.0204 µM and 0.0631 µM, the TGI (A498 renal) was 21.1 µM and > 100 µM and the GI50 (UACC-257 melanoma) was 0.11 µM and 0.062 µM. For the same compound, the TGI (UACC-257 melanoma) was 21.1 µM and > 100 µM, the GI50 (SK-OV-3 ovarian) was 0.011 µM and 0.0185 µM and the TGI (SK-OV-3 ovarian) was 21.1 µM and > 100 µM. The GI50 (KM12 colon) was 0.178 µM, the TGI (KM12 colon) was 21.1 µM and the GI50 (ACHN renal) was 0.00745 µM. For the same compound, the TGI (ACHN renal) was 21.1 µM and > 100 µM, the GI50 (SF-539 CNS) was 0.00565 µM and the TGI (SF-539 CNS) was 21.1 µM and > 100 µM. For the same compound, the GI50 (SNB-19 CNS) was 0.0721 µM and 0.0219 µM, the TGI (SNB-19 CNS) was 21.1 µM and > 100 µM and the GI50 (RXF 393 renal) was 0.846 µM and 0.684 µM. For the same compound, the TGI (RXF 393 renal) was 21.1 µM and 70.4 µM, the GI50 (786-0 renal) was 0.00777 µM and 0.0131 µM and the TGI (786-0 renal) was 21.1 µM and > 100 µM. For the same compound, the GI50 (MDA-MB-435) was 1.28 µM and 0.233 µM, the TGI (MDA-MB-435) was 21.1 µM and > 100 µM and the TGI (EKVX NSCLC) was > 100 µM. The GI50 (DU-145 prostate) was 0.0185 µM and 0.0254 µM, the TGI (DU-145 prostate) was 21.1 µM and > 100 µM and the TGI (SK-MEL-28 melanoma) was 21.1 µM and > 100 µM. For the same compound, the GI50 (A549 NSCLC) was 0.00284 µM, the TGI (A549 NSCLC) was 21.1 µM and > 100 µM and the GI50 (SF-268 CNS) was 0.00514 µM. For the same compound, the TGI (SF-268 CNS) was 21.1 µM and > 100 µM.
